Assay results reported in US5756505A, “N-acylpiperazine derivative, antibacterial drug and anti-ulcer drug” (Shiseido Co., Ltd., priority 1995, dated 1998).

Columns and labels:
[1] = system: stress ulcer formation; experiment: WIS: Restraint and Water Immersion Stress-Induced Ulcer Inhibition Test; assay type: in vivo, rat (male Crj:SD or Slc:SD); conditions: rat; for WIS: ulcer formation inhibitory rate: 100 mg/kg oral, 7 hours stress
Protocol: WIS: Restraint and Water Immersion Stress-Induced Ulcer Inhibition Test
The degree of inhibition of the stress ulcer formation is tested.
Male Crj:SDor Slc:SD rats (6 to 7-week-old) were fasted overnight, but allowed free access to water. Each group has 5 to 8 of these rats. The sample compound was dissolved or suspended in an aqueous solution of 0.3% sodium carboxymethylcellulose or 0.05% Tween 80 and then was orally administered (100 mg/10 ml/kg). To a control group, the vehicle was administered. 10 minuts later, the rats were placed in a stress cage and immersed to the level of xipfoid process in a water bath (21° C.) for 7 hours. At the end of the stress, the rats were sacrificed by inhalation of ether or carbon dioxide. Then, the stomach of each was removed, inflated by injecting 10 ml of 5% formalin neutral buffer solution, and immersed in 1% formalin neutral buffer solution for 30 minutes or more to be fixed. The stomach was incised along the greater curvature and then the length of each erosion in the glandular portion was determined under dissecting microscope. The sum of the length of erosions per stomach was defined as ulcer index (UI).
The effect obtained when 100 mg/kg of the sample compound had been administered was expressed as ulcer formation inhibitory rate (%) as follows:
ulcer formation inhibitory rate (%)=[1-(UI in sample group/UI in control group)]×100

[2] = system: isolated gastric fundic gland; experiment: CAP: Acid Secretion Inhibition Test In Vitro ([14C]-aminopyrine uptake); assay type: cell-based, rabbit (male Japanese White); conditions: Oryctolagus cuniculus, final concentration 10^-5 M, histamine 10^-5 M, rabbit gastric fundic gland; read-out: CAP: acid secretion inhibitory rate
Protocol: CAP: Acid Secretion Inhibition Test In Vitro
The acid secretion inhibitory activity in a cell level is studied. It can also be used for studying the mechanism of the effect. […]
ii-a) Preparation of isolated gastric fundus gland suspension
First, an isolated gastric fundic gland sample was prepared. Namely, a male Japanese White rabbit (2.5 to 3 kg) was anesthetized to death with Nembutal™ and then the abdomen was incised. Immediately thereafter, the stomach was removed and, after its pyloric and cardiac antrum were severed, incised along its greater curvature into two sheets. The gastric contents adhering to the mucosal surface was washed out with ice-cooled PBS (-) and then carefully washed therein. The gastric wall was spread on a cork board with its mucosal surface facing up and the feed and mucus thereon were completely removed with sterile gauze. The mucosa was separated therefrom by a spatula and then collected in ice-cooled PBS (-). After being washed twice with PBS (-), the mucosa was minced into 2-3mm^3 pieces by scissors. These pieces were further washed twice with a nutrient solution. The nutrient solution comprises 132.4 mM of NaCl, 5.4 mM of KCl, 5 mM of Na2 HPO4 ·12H2 O, 1 mM of NaH2 PO4 ·2H2 O, 1.2 mM of MgSO4, 1 mM of CaCl2, 25 mM of HEPES, 2mg/ml of glucose, and 1 mg/ml of BSA. Into 70 ml of the nutrient solution containing 1 mg/ml of collagenase, minced mucosal pieces were dispersed and intensely stirred in a conical flask with a stirrer at 37° C. for 40 to 60 minutes. During this period, 100% O2 was sprayed on the nutrient solution surface and the pH was appropriately measured such that it was immediately adjusted to pH 7.4, when the value was therebelow, with a base. The nutrient solution was added to the reaction solution so as to attain the total amount of about 200 ml. After being filtered through a mesh, the suspension was divisionally introduced into 50 ml centrifuge tubes and left for 15 minutes such that gastric fundic gland was deposited. The supernatant was repeatedly removed by an aspirator, dispersed in the nutrient solution, and then left such that the gastric fundic gland was washed three times. At this time, without using a pipette, the suspension was alternately introduced into two centrifuge tubes so as to effect dispersion. The number of cells was counted under microscope and adjusted to 1.6×10^6 cells/ml. […]
ii-b) [^14 C]-aminopyrine uptake test
Then, [^14 C]-aminopyrine uptake test was performed. After an Eppendorf tube was weighed, 10 μl (final concentration: 10^-5 M) of histamine dissolved in the above-mentioned nutrient solution, 10 μl (final concentration: 10^-5 M) of the test compound dissolved in DMSO, and 10 μl (final concentration: 0.05 μCi/ml) of [^14 C]-aminopyrine diluted with the nutrient solution were introduced therein and then 970 μl of the isolated gastric fundic gland suspension prepared above were added thereto. Subsequently, this mixture was shaken at 37° C. for 40 minutes at 125 cycles/minute. After being centrifuged for 30 minutes 200 μl of its supernatant was collected into a mini-vial, while the rest was removed by an aspirator. The gland pellet was completely dried as the tube with its lid being opened was kept for one night in a drying oven at 80° C. and then the lid was closed and the weight was determined at room temperature. Then 100 μl of 1N KOH were added thereto and the tube with its lid being closed was treated at 60° C. for 1 to 2 hours so as to dissolve the pellet. Then, the contents thereof were transferred to a mini-vial. Into the mini-vial containing the supernatant or gland pellet, 4 ml of Atomlite™ were added and then the radioactivity was measured by a liquid scintillation counter. Here, after the radioactivity of the gland pellet was corrected by using a sample in which 20 mM of NaSCN were added so as to cancel the hydrogen ion concentration gradient, the integration ratio of aminopyrine specifically trapped by the gland pellet was calculated. […]

[3] = MTT: Cell Damaging and Protecting Effect Test; assay type: cell-based, rabbit (male Japanese White); conditions: rabbit, gastric mucosal cells, final concentration 10^-4 M, 4 hours; smaller value is better; read-out: MTT: cell damaging rate
Text: MTT: Cell Damaging and Protecting Effect Test
It is confirmed that there is no toxicity in cell level. Those having a toxicity in cell level are inappropriate as an anti-ulcer drug.
A male Japanese White rabbit (2.5 to 3 kg) was anesthetized to death by Nembutal™ and, immediately thereafter, its stomach was removed. The greater curvature of the stomach was incised so as to remove the stomach contents therefrom. After the mucosal surface was washed with HBSS (Hanks' Balanced Salt Solution), the stomach in ice-cooled HBSS was transferred to a laboratory. Then, after the pyloric antrum was removed, the gastric corpus mucosa was separated by a spatula and then minced into 2 to 3 mm^3 pieces in BME (Basal Medium Eagle). Thereafter, these pieces were shaken at 120 to 130 cycles/minute for 15 minutes at 37° C. in BME 60ml containig 280 U/ml of dispase and 30 to 50 U/ml of collagenase. Here, the concentration of collagenase was appropriately changed for each lot in view of the state of cells. The pieces were washed twice with EBSS (Earle's Balanced Salt Solution) containing 1 mM of EDTA and then shaken in MEM (Minimum Essential Medium) containing 1 mM of EDTA at 37° C. for 5 minutes. Subsequently, they were shaken in the dispase and collagenase having the same concentrations as those mentioned above for 15 minutes so as to remove the supernatant and then further shaken at 37° C. for 50 to 60 minutes at 120 to 130 cycles/minute. Then, after being washed twice with HBSS, Ham F12 containing 2% of Ultrocer G™ was used to attain the concentration of 1×10^6 cells/ml. Thus formed suspension was dispensed in each well of a 96-well plate by 200 μl. The plate was incubated in the atmosphere composed of 5% CO2 and 95% air at 37° C. for three days so as to attain a confluent state and then subjected to MTT assay.
The sample compound was dissolved in DMSO so as to attain a concentration of 10^-2 M and then diluted with HBSS containing 2% of Ultrocer G™ so as to attain a final concentration of 10^-4 M. To each group, which 8 wells were used for, 10 μl of MTT reagent were added immediately after 100 μl of the medium in each well were exchanged for same volume of the resulting solution of the sample compound. After being incubated in an atmosphere composed of 5% CO2 and 95% air at 37° C. for 4 hours, thus formed solution was centrifuged and then its supernatant was discarded. Subsequently, 100 μl of 100% ethanol were added to the residue so as to dissolve MTT formazan. Then, the absorbance (OD: 570 to 630) was measured by a microplate reader. This method utilizes a phenomenon in which MTT is changed to MTT formazan only by mitochondria of living cells so as to change color.
The cell damaging or cell protecting effect of the sample compound at the final concentration of 10^-4 M was expressed as cell damaging rate (%) as follows:
cell damaging rate (%)=[1-(absorbance in sample group/absorbance in control group)]×100
Accordingly, the smaller value is better in the cell damaging rate.

[4] = cited from earlier work

Compound | WIS: ulcer formation inhibitory rate [1] [%] | anti-ulcer effect (in words) ([1]; in vivo) | inhibition at 10 µM [2] [%] | cytotoxicity at 4 h, 100 µM [3] [%] | pKa [4]
CC(C)CN1CCN(C(=O)c2ccc(OCc3ccc(F)cc3)c(N)c2)CC1.Cl.Cl [Example 1, 1-[3-amino-4-(4-fluorobenzyloxy)benzoyl]-4-isobutylpiperazine dihydrochloride] | 88 | – | – | – | –
CC(C)Cc1cc(C(=O)N2CCN(CCOC(=O)c3ccc4c(c3)OCO4)CC2)ccc1OCc1ccc(F)cc1 [Example 10, 1-[4-(4-fluorobenzyloxy)-3-isobutylbenzoyl]-4-[2-(piperonyloyloxy)ethyl]piperazine] | 54 | sufficient effects | 100 | 34 | –
Cc1c(N(C)C)c(=O)n(-c2ccccc2)n1C [aminopyrine] | – | – | – | – | 5.0
COc1cc(C(=O)N2CCN(CC(C)C)CC2)ccc1OCc1ccc(F)cc1.Cl [Example 7, 1-[4-(4-fluorobenzyloxy)-3-methoxybenzoyl]-4-isobutylpiperazine hydrochloride] | 48 | – | 100 | -72 | –
CC(C)Cc1cc(C(=O)N2CCN(CC(C)C)CC2)ccc1OCc1ccc(C#N)cc1.Cl [Example 11, 1-[4-(4-cyanobenzyloxy)-3-isobutylbenzoyl]-4-isobutylpiperazine hydrochloride] | 94 | – | 100 | -77 | –
